These results are taken from patent publication US20100035943A1, “Oxa-and thiadiazoles and their use as metalloproteinase inhibitors” (VERNALIS (OXFORD) LTD, priority 2002, published 2010).

In assay [1] the test system is IL2-induced lymphocyte recruitment. The experiment in a line: IL2-induced peritoneal recruitment of lymphocytes. It counts as in vivo, C3H/HEN mice. Particulars: mice, Subcutaneous route, 15 min prior to IL2, cells counted 24 hours after IL2. On the procedure: Administration of IL2 intraperitoneally causes migration of lymphocytes into the intraperitoneal cavity. This is a model for the cellular migration that occurs during inflammation.
C3H/HEN mice (Elevage Janvier, France) were intraperitoneally injected with IL2 (Serono Pharmaceutical Research Institute, 20 μg/kg, in saline). Compounds of the invention were suspended in 0.5% carboxymethylcellulose (CMC)/0.25% tween-20 and were administered by sc or po route (10 ml/kg) 15 min prior to administration of IL2.
Twenty-four hours after administration of IL2, peritoneal white blood cells were collected by 3 successive lavages of the peritoneal cavity with 5 ml phosphate buffered saline (PBS)-1 mM EDTA (+4° C.). The suspension was centrifuged (1700 g×10 min at +4° C.). The resulting pellet was suspended in 1 ml PBS-1 mM EDTA.
Lymphocytes were identified and counted using a Beckman/Coulter counter.
The animals were divided into 5 groups (6 mice each group):
Group 1: (baseline) received 0.5% CMC/0.25% tween-20 (vehicle of compound of the invention) and saline (vehicle of IL2); Group 2: (control IL2) received 0.5% CMC/0.25% tween-20 and injection of IL2; Group 3: Experimental group (Compound of the invention Dose 1) received a compound of the invention and injection of IL2; Group 4: Experimental group (Compound of the invention Dose 2) received a compound of the invention and injection of IL2; Group 5: Experimental group (Compound of the invention Dose 3) received a compound of the invention and injection of IL2; Group 6: Reference group received reference compound dexamethasone and injection of IL2
Inhibition of lymphocyte recruitment was calculated as follows:
Where Ly 1=Number of lymphocytes in group 1 (E3/μl), Ly 2=Number of lymphocytes in group 2 (E3/μl), Ly X=Number of lymphocytes in group X (3-5) (E3/μl)
The dose of compound of the invention required to inhibit lymphocyte recruitment by 50% (ID50) was calculated using a curve-fitting routine.

For assay [2], the target named is T1, collagenase (MMP1) (Homo sapiens, UniProt P03956).
T1 sequence (P03956 100-469): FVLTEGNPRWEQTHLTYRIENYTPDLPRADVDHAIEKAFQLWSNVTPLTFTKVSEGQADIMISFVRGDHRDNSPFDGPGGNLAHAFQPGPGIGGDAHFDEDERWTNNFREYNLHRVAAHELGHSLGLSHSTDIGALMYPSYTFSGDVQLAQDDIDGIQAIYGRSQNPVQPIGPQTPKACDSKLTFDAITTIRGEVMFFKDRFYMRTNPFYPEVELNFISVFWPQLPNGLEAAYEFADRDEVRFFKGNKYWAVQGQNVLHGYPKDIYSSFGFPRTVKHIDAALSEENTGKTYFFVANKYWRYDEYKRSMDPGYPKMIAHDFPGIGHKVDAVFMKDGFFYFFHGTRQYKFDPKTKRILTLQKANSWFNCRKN
The experiment in a line: MMP1 enzyme inhibition assay (fluorogenic peptide substrate McaPLGLDpaAR). The assay is classed as biochemical. Conditions: protocol as for MMP9 assay. On the procedure: (§1) Stock solutions were made up as follows: • Assay Buffer: 100 mM Tris-HCl pH 7.6 containing 100 mM NaCl, 10 mM CaCl2, and 0.05% Brij 35 • Substrate: 0.4 mM McaPLGLDpaAR (from Bachem) (0.437 mg/ml) stock solution in 100% DMSO (stored at −20° C.). Dilute to 8 μM in assay buffer. • Enzyme: Recombinant human 92 kDa gelatinase (MMP-9; APMA (4-aminophenyl • mercuric acetate)—activated if necessary) appropriately diluted in assay buffer.
(§2) Test Compounds were prepared initially as 10 mM compound solution in 100% DMSO, diluted to 1 mM in 100% DMSO, then serially diluted 3-fold in 100% DMSO across columns 1-10 of a 96-well microtitre plate Assay concentration range, 100 μM (column 1) to 5.1 nM (column 10)
(§3) The assay was performed in a total volume of 100 μl per well in 96-well microtitre plates. Activated enzyme (20 μl) was added to the wells followed by 20 μl of assay buffer. Appropriate concentrations of test compounds dissolved in 10 μl of DMSO were then added followed by 50 μl of McaPLGLDpaAR (8 μM, prepared by dilution of DMSO stock in assay buffer). For each assay ten concentrations of test compound were examined in duplicate. Control wells lack either enzyme or test compound. The reactions were incubated at 37° C. for 2 hours. The fluorescence at 405 nm was measured immediately with an SLT Fluostar fluorometer (SLT Labinstruments GmbH, Grödig, Austria) using 320 nm excitation, without stopping the reaction.
(§4) The effect of the test compound was determined from the dose response curve generated by the 10 duplicate concentrations of inhibitor. The IC50 (the concentration of compound required to give a 50% decrease in enzyme activity) was obtained by fitting data to the equation, Y=a+((b−a)/(1+(c/X)^d)). (Y=inhibition achieved for a particular dose; X=the dose in nM; a=minimum y or zero % inhibition; b=maximum y or 100% inhibition; c=is the IC50; d=is the slope). The result was rounded to one significant figure.
• Compounds were tested for inhibitory activity against collagenase (MMP1) in an assay using a coumarin-labelled peptide substrate, (7-methoxycoumarin-4-yl)acetyl-Pro-Leu-Gly-Leu-(3-[2,4-dinitrophenyl]-L-2,3-diaminopropionyl)-Ala-Arg-NH2 (McaPLGLDpaAR) (Knight et al, FEBS Lett. 1992; 263-266). The protocol for this assay was as described for the MMP9 assay above.

The target in assay [3] is 92 kDa gelatinase (MMP9) (Homo sapiens, UniProt P14780). The assay can be described thus: MMP9 enzyme inhibition assay (fluorogenic peptide substrate McaPLGLDpaAR). It counts as biochemical. Particulars: recombinant human 92 kDa gelatinase, 37° C., 2 hours. As to the method: Compounds were tested for inhibitory activity against 92 kDa gelatinase (MMP9) in an assay using a coumarin-labelled peptide substrate, (7-methoxycoumarin-4-yl)acetyl-Pro-Leu-Gly-Leu-(3-[2,4-dinitrophenyl]-L-2,3-diaminopropionyl)-Ala-Arg-NH2 (McaPLGLDpaAR) (Knight et al, FEBS Lett. 1992; 263-266).
Chain of 92 kDa gelatinase (MMP9) (P14780 107-707 limits assumed): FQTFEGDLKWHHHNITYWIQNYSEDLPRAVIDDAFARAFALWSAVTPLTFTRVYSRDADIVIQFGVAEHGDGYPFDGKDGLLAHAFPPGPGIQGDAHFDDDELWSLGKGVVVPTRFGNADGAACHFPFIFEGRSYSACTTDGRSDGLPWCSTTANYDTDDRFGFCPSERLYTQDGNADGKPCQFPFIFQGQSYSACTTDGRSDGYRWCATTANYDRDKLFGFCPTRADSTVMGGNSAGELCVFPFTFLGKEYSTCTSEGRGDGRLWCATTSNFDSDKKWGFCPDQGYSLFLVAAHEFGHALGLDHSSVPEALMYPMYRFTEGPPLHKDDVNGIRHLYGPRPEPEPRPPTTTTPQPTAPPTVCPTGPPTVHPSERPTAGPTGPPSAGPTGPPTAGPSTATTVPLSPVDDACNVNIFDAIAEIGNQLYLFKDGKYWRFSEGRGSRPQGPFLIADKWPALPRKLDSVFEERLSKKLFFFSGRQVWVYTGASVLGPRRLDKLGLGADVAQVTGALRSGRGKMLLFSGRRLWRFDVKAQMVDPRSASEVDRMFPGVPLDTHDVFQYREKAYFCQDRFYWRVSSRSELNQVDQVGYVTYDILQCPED
as §1, §2, §3, §4

Assay [4] has as its target metalloelastase (MMP12) (Homo sapiens, UniProt P39900). The assay can be described thus: MMP12 enzyme inhibition assay (fluorogenic peptide substrate McaPLGLDpaAR). Particulars: protocol as for MMP9 assay. It counts as biochemical. As to the method:
as §1, §2, §3, §4
Compounds were tested for inhibitory activity against metalloelastase (MMP12) in an assay using a coumarin-labelled peptide substrate, (7-methoxycoumarin-4-yl)acetyl-Pro-Leu-Gly-Leu-(3-[2,4-dinitrophenyl]-L-2,3-diaminopropionyl)-Ala-Arg-NH2 (McaPLGLDpaAR) (Knight et al, FEBS Lett. 1992; 263-266). The protocol for this assay was as described for the MMP9 assay above.

Some results are limits rather than exact numbers.

Chain of metalloelastase (MMP12) (P39900 106-470): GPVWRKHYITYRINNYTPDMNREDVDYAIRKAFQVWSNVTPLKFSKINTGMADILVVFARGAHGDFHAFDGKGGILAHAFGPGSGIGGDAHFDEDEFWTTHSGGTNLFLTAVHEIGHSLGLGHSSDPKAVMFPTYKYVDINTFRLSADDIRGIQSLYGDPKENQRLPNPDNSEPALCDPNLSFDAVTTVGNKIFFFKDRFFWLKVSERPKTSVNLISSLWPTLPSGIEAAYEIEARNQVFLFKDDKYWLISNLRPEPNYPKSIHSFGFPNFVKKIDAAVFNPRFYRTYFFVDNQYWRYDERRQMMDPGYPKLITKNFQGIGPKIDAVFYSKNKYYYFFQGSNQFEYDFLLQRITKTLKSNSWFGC

As to `C[C@@H]1C[C@H]2[C@@H]3CCC4=CC(=O)C=C[C@]4(C)[C@@]3(F)[C@@H](O)C[C@]2(C)[C@@]1(O)C(=O)CO` [dexamethasone, reference compound], the “ID50 for inhibition of IL2-induced peritoneal recruitment of lymphocytes” value in assay [1] came to 0.05 mg/kg.
`CC(C)C[C@@H](C(=O)N[C@H](c1noc(-c2ccco2)n1)C(C)(C)C)[C@H](O)C(=O)NO` [Example 5, 2S-Hydroxy-3R-[1S-(5-furan-2-yl-[1,2,4]oxadiazol-3-yl)-2,2-dimethyl-propylcarbamoyl]-5-methyl Hexanohydroxamic Acid]: the IC50 – broadly, the concentration needed to halve the response being measured – in assay [2] is 100 to 1000 nM; in assay [3], 100 to 1000 nM; in assay [4], less than 100 nM. In addition, the “ID50 for inhibition of IL2-induced peritoneal recruitment of lymphocytes” value in assay [1] is recorded as 1 mg/kg.
